The values below are quoted from earlier work in patent US20120196858A1, “METHOD OF PROMOTING APOPTOSIS AND INHIBITING METASTASIS” (Poniard Pharmaceuticals ,Inc., priority 2009, published 2012).

This data set concerns lung carcinoma xenografts. As to conditions: previous studies; cited from earlier work.

Structures are written as SMILES.

Consider `CN(c1ncccc1CNc1nc(Nc2ccc3c(c2)CC(=O)N3)ncc1C(F)(F)F)S(C)(=O)=O` [PF-562,271], for which the tumor microvessel density result is recorded as “reduced tumor microvessel density”.
